Experimental data published in ChEMBL document CHEMBL1944561, “Discovery and SAR exploration of a novel series of imidazo[4,5-b]pyrazin-2-ones as potent and selective mTOR kinase inhibitors” (Bioorg Med Chem Lett, 2011).

Tests used:
[1] = target: T1, Serine/threonine-protein kinase mTOR (Homo sapiens, UniProt P42345); test: Inhibition of mTOR
[2] = target: Tyrosine-protein kinase BTK (Homo sapiens) (UniProt Q06187); test: Inhibition of BTK assessed as activity remaining at 10 uM
[3] = target: T2, Calcium/calmodulin-dependent protein kinase type IV (Homo sapiens) (UniProt Q16566); test: Inhibition of CaMK4 assessed as activity remaining at 10 uM
T2 sequence (whole entry): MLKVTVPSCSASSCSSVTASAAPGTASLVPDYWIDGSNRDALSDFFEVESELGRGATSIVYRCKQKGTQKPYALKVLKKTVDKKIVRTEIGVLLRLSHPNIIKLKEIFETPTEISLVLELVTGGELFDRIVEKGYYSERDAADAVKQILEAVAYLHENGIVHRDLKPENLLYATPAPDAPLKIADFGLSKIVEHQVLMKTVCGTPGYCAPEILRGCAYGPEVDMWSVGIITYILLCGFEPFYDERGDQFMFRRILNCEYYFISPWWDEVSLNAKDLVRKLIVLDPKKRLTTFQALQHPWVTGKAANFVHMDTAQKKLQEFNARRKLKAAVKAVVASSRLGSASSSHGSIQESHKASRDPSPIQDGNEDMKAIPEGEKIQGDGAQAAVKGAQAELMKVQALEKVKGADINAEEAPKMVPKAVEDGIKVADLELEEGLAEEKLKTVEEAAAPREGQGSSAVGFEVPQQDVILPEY

[4] = target: Fibroblast growth factor receptor 1 (Homo sapiens) (UniProt P11362); test: Inhibition of FGFR1 assessed as activity remaining at 10 uM
[5] = target: Tyrosine-protein kinase JAK2 (Homo sapiens) (UniProt O60674); test: Inhibition of JAK2 assessed as activity remaining at 10 uM
[6] = target: Tyrosine-protein kinase Lck (Homo sapiens) (UniProt P06239); test: Inhibition of Lck assessed as activity remaining at 10 uM
[7] = target: Tyrosine-protein kinase Lyn (Homo sapiens) (UniProt P07948); test: Inhibition of LYN-A assessed as activity remaining at 10 uM
[8] = target: MAP kinase-activated protein kinase 3 (Homo sapiens) (UniProt Q16644); test: Inhibition of MAPKAP-K3 assessed as activity remaining at 10 uM
[9] = target: SRSF protein kinase 3 (Homo sapiens) (UniProt Q9UPE1); test: Inhibition of MSSK1 assessed as activity remaining at 10 uM
[10] = target: T1, Serine/threonine-protein kinase mTOR; test: Inhibition of mTOR assessed as activity remaining at 10 uM
[11] = target: T3, Serine/threonine-protein kinase Nek2 (Homo sapiens) (UniProt P51955); test: Inhibition of NEK2 assessed as activity remaining at 10 uM
T3 sequence (whole entry): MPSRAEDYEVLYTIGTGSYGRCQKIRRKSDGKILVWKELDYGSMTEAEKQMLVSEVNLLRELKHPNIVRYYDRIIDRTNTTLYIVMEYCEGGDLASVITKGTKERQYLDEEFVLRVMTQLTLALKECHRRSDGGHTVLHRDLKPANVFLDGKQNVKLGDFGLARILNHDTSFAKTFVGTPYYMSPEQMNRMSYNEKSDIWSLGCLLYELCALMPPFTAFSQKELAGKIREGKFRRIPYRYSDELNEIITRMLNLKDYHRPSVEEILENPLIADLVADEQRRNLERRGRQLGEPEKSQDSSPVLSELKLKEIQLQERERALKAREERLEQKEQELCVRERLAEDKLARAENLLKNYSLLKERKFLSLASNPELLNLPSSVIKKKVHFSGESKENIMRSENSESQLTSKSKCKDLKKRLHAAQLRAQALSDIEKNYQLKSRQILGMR

[12] = target: T4, Protein kinase C zeta type (Homo sapiens) (UniProt Q05513); test: Inhibition of PKC-zeta assessed as activity remaining at 10 uM
T4 sequence (whole entry): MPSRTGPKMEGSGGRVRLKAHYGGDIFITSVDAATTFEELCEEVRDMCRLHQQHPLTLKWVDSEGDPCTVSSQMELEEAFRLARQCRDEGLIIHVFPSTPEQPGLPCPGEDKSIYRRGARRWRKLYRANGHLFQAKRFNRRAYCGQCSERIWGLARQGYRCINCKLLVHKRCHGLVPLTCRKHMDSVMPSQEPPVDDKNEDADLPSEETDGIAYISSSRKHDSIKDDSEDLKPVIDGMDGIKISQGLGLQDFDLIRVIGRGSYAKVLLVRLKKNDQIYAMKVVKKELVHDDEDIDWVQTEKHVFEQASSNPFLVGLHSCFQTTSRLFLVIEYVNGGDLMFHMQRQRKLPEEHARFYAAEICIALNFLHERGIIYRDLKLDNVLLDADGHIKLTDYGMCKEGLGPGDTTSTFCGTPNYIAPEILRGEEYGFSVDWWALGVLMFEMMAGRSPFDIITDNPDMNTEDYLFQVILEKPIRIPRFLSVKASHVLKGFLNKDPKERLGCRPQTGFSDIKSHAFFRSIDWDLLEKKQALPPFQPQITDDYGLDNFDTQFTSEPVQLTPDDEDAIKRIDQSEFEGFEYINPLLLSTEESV

[13] = target: Serine/threonine-protein kinase D2 (Homo sapiens) (UniProt Q9BZL6); test: Inhibition of PKD2 assessed as activity remaining at 10 uM
[14] = target: Serine/threonine-protein kinase PLK1 (Homo sapiens) (UniProt P53350); test: Inhibition of Plk1 assessed as activity remaining at 10 uM
[15] = target: Macrophage-stimulating protein receptor (Homo sapiens) (UniProt Q04912); test: Inhibition of Ron assessed as activity remaining at 10 uM
[16] = target: Tyrosine-protein kinase ZAP-70 (Homo sapiens) (UniProt P43403); test: Inhibition of ZAP70 assessed as activity remaining at 10 uM
[17] = target: Glycogen synthase kinase-3 alpha (Homo sapiens, UniProt P49840); test: Inhibition of GSK3alpha
[18] = Metabolic stability in rat hepatocytes assessed as compound remaining after 60 mins; assay type: ADME, cell-based, Hepatocyte; conditions: read-out: Stability

Sequence of Tyrosine-protein kinase BTK (Homo sapiens) (Q06187 whole entry): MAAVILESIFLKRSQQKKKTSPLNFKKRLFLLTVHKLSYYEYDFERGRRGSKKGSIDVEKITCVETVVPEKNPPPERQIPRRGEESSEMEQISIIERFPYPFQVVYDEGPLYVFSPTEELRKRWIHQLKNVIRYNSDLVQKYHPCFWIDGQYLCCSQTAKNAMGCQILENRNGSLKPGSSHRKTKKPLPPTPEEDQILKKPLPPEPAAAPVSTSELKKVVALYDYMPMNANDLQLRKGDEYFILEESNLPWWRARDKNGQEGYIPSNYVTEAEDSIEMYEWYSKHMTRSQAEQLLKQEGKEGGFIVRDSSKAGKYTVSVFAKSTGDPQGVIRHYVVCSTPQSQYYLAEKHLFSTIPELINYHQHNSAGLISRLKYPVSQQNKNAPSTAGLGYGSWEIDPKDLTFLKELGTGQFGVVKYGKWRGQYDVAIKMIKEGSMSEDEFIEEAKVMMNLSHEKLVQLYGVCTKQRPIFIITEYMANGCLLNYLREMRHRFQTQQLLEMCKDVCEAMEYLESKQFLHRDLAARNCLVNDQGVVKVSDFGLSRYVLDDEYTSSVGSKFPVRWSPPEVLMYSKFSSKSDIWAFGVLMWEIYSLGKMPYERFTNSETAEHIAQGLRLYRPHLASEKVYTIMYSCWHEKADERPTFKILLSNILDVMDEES
Sequence of SRSF protein kinase 3 (Homo sapiens) (Q9UPE1 whole entry): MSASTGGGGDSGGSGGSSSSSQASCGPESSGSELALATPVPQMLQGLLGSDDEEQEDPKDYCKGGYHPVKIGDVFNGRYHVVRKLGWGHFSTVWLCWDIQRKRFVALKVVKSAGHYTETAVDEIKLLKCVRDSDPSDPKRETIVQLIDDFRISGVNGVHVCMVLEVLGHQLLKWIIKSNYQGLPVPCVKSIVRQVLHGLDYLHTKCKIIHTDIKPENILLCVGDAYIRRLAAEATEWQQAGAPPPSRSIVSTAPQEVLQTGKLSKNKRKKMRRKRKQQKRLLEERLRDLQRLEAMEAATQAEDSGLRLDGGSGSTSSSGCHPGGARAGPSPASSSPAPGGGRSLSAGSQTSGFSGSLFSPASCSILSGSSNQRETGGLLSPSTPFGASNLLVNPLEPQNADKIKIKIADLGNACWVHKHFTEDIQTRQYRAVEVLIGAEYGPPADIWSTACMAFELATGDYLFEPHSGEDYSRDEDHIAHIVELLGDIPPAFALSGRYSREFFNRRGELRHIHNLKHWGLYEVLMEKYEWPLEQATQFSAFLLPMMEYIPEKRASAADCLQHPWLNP
Sequence of Fibroblast growth factor receptor 1 (Homo sapiens) (P11362 22-822 limits assumed): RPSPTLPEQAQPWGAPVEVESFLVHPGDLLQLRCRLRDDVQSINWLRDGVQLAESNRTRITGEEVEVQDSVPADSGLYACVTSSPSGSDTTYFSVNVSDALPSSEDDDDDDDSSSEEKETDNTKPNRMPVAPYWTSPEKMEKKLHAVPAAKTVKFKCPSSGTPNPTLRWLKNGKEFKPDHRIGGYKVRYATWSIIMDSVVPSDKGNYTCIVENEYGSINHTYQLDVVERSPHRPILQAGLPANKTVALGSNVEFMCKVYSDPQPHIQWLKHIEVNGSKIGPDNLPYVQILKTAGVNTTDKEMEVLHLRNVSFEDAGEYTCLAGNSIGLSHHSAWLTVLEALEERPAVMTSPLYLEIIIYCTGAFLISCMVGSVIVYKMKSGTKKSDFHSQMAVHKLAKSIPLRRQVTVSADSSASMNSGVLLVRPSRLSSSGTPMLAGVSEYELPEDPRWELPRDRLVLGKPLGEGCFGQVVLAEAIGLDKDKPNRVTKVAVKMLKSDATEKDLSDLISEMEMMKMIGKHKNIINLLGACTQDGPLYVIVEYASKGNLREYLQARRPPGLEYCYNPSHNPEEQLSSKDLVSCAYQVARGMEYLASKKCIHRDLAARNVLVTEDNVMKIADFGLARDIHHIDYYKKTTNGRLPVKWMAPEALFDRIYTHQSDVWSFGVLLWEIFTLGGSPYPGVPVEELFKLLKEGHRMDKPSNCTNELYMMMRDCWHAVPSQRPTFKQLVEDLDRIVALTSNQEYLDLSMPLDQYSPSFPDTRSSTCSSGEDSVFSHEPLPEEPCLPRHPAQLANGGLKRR
Sequence of Glycogen synthase kinase-3 alpha (P49840 whole entry): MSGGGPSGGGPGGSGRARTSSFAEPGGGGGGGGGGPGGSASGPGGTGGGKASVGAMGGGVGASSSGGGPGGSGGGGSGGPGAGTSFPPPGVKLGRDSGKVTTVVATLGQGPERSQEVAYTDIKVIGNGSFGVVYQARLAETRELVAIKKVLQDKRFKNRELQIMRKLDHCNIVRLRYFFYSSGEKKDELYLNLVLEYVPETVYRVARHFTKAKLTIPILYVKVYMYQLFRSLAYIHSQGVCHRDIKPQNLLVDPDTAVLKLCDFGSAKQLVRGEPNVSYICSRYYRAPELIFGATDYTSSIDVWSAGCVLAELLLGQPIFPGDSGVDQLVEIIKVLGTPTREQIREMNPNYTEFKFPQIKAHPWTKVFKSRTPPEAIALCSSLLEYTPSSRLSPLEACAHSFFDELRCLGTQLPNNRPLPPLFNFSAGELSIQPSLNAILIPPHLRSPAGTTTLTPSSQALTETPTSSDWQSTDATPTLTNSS
Sequence of Tyrosine-protein kinase ZAP-70 (Homo sapiens) (P43403 whole entry): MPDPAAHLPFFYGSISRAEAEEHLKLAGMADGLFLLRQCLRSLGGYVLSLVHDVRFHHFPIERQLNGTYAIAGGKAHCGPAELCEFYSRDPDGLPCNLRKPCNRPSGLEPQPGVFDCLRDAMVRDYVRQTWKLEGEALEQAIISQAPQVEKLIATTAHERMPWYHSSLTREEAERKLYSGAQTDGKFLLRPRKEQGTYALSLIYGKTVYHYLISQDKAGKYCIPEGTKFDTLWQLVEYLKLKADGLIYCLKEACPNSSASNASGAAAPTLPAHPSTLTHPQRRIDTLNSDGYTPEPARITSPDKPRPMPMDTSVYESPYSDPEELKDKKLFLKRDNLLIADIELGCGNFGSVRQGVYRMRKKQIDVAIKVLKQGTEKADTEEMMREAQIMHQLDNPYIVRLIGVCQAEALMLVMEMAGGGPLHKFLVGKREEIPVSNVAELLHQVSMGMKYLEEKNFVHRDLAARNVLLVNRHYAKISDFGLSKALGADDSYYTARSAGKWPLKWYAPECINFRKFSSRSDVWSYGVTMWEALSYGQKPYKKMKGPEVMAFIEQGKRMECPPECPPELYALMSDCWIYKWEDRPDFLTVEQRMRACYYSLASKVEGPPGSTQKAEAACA
Sequence of Macrophage-stimulating protein receptor (Homo sapiens) (Q04912 25-304 limits assumed): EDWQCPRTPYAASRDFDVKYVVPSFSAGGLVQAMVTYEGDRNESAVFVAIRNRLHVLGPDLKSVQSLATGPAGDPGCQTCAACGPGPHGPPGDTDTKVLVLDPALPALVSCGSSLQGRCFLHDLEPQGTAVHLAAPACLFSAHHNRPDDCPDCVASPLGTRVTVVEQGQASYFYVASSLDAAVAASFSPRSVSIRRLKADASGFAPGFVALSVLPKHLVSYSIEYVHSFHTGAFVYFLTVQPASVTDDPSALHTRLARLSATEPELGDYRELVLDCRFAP
Sequence of Macrophage-stimulating protein receptor (Homo sapiens) (Q04912 310-1400 limits assumed): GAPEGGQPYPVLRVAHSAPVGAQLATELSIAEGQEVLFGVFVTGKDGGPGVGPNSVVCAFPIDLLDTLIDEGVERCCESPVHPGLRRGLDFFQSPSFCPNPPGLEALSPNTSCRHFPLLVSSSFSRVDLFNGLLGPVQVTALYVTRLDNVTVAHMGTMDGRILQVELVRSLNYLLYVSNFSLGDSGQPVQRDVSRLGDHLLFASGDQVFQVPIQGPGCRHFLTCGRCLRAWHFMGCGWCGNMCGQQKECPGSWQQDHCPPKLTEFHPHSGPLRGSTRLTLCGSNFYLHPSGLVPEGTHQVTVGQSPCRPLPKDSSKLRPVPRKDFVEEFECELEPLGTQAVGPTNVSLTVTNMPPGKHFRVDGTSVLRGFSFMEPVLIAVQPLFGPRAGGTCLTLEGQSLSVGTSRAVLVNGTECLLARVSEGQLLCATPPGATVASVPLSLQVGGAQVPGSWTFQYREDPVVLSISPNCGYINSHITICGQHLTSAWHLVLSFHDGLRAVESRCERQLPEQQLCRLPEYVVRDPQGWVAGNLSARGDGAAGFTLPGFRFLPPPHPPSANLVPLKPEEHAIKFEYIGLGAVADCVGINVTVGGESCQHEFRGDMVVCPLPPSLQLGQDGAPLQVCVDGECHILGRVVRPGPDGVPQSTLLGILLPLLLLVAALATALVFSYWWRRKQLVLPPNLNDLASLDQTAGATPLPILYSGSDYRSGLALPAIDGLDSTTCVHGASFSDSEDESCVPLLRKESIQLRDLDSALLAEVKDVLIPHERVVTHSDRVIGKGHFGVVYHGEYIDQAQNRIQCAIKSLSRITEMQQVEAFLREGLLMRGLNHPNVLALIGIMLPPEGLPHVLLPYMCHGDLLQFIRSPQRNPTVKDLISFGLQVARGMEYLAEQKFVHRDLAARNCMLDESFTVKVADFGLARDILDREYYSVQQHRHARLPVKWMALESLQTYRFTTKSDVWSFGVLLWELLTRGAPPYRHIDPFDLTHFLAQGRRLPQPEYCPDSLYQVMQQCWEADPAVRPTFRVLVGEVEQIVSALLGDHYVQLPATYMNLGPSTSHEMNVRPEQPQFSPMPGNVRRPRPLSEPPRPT
Sequence of MAP kinase-activated protein kinase 3 (Homo sapiens) (Q16644 whole entry, looked up): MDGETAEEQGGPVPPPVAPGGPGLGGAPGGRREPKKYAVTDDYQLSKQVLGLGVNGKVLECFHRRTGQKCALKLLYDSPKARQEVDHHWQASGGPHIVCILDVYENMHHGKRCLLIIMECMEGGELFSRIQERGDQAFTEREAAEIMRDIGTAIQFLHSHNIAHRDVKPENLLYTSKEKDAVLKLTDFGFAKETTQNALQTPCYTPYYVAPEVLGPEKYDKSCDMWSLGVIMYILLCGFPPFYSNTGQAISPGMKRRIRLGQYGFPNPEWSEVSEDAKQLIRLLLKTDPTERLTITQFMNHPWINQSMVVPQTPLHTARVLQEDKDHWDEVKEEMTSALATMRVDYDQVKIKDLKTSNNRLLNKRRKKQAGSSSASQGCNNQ

Q: With O=c1[nH]c2ncc(-c3ccc(-c4nc[nH]n4)cc3)nc2n1CC1CCOCC1 as the compound, how does the IC50 [1] read?
A: 2 nM

Q: And the Activity [2]?
A: 90%

Q: What about the Activity [3] of the same compound?
A: 103%

Q: What about the Activity [4] of the same compound?
A: 93%

Q: What about the Activity [5] of the same compound?
A: 98%

Q: And the Activity [6]?
A: 86%

Q: What about the Activity [7] of the same compound?
A: 96%

Q: And the Activity [8]?
A: 94%

Q: What about the Activity [9] of the same compound?
A: 93%

Q: What about the Activity [10] of the same compound?
A: 0%

Q: What about the Activity [11] of the same compound?
A: 103%

Q: And the Activity [12]?
A: 94%

Q: And the Activity [13]?
A: 94%

Q: And the Activity [14]?
A: 95%

Q: What about the Activity [15] of the same compound?
A: 95%

Q: What about the Activity [16] of the same compound?
A: 99%

Q: With O=c1[nH]c2ncc(-c3ccc4[nH]cnc4c3)nc2n1CC1CCCCC1 as the compound, how does the IC50 [1] read?
A: 21 nM

Q: And the IC50 [17]?
A: 990 nM

Q: What about the Activity [2] of the same compound?
A: 88%

Q: What about the Activity [3] of the same compound?
A: 101%

Q: And the Activity [4]?
A: 63%

Q: And the Activity [9]?
A: 91%

Q: And the Activity [11]?
A: 98%

Q: What about the Activity [12] of the same compound?
A: 75%

Q: For CC(C)(O)c1ccc(-c2cnc3[nH]c(=O)n(CC4CCCCC4)c3n2)cc1, which IC50 [1] is on record?
A: 30 nM

Q: What about the IC50 [17] of the same compound?
A: 600 nM

Q: What about the Activity [2] of the same compound?
A: 84%

Q: What about the Activity [3] of the same compound?
A: 99%

Q: What about the Activity [4] of the same compound?
A: 94%

Q: And the Activity [9]?
A: 89%

Q: What about the Activity [11] of the same compound?
A: 98%

Q: What about the Activity [12] of the same compound?
A: 91%

Q: What about the remaining at 1 h [18] of the same compound?
A: 65%
